Results reported in US20260325561A1, “4'-SUBSTITUTED NUCLEOSIDES AND NUCLEOTIDES AS ANTIVIRAL AGENTS” (THE SCRIPPS RESEARCH INSTITUTE, priority 2023, published 2026).

Key:
in vitro [1] = settings: human, h1 hela cells
in vitro [2] = settings: human, hela-ace2 cells
RSV A2 = experiment: microbe, parasite or virus in culture; format: cell-based
HCoV-229E = experiment: microbe, parasite or virus in culture; format: cell-based
MEV = experiment: Antiviral activity against MEV; format: cell-based, MEV CC; settings: FIG. 1
Description: (§1) All other antiviral assays were run at Utah State/Justin Julander through NIAID Preclinical Services. The following virus strains and cell lines were used:
(§2) Compounds were added to cells prior to addition of virus at an appropriate MOI to cause visible CPE. […] For compounds with an SI.5, a virus yield reduction assay was conducted, where supernatant collected from the CPE assay was titered for virus. The EC90 was calculated as the amount of compound needed to reduce the virus titer by 1 log 10.

SARS-CoV-2 = experiment: microbe, parasite or virus in culture; format: cell-based, SARS-CoV-2 strain USA-WA1/2020
SARS-CoV-1 = format: cell-based
HRV 14 = experiment: microbe, parasite or virus in culture; format: cell-based, Human Rhinovirus 14 strain 1059
Flu A H1N1 = experiment: Antiviral activity against Flu A H1N1; format: cell-based, Flu A H1N1 California/07/2009; settings: Flu A H1N1, FIG. 1
Description: as §1, §2

in vitro [3] = settings: human, mrc5 cells
Polio PV-3 = format: cell-based, PV-3 WM-3
YFV = experiment: microbe, parasite or virus in culture; format: cell-based, YFV strain 17D
Cytotoxicity, HFF = format: cell-based; settings: human, hff cells; read-out: HCMV/HFF CC50
in vitro [4] = settings: human, hepg2 cells
HCoV-OC43 = experiment: microbe, parasite or virus in culture; format: cell-based, Human Coronavirus
ZIKV = experiment: microbe, parasite or virus in culture; format: cell-based, ZIKV MR766
DENV-2 = experiment: microbe, parasite or virus in culture; format: cell-based, DENV-2 16681; settings: for SI (selectivity), DENV-2 HepG2 assay: SI=CC50/EC50
in vitro [5] = settings: human, hep2 cells
HRV 16 = experiment: microbe, parasite or virus in culture; format: cell-based, Human Rhinovirus 16 strain 11757
MERS-CoV = format: cell-based, MERS-CoV EMC
CHIKV = experiment: microbe, parasite or virus in culture; format: cell-based, CHIKV strain 181/25
HCMV = experiment: HCMV/HFF antiviral assay; format: cell-based; settings: Human betaherpesvirus 5, HFF
Polio PV-1 = format: cell-based, PV-1 CHAT
in vitro [6] = settings: human, hct-8 cells
COXV-B3 = experiment: Antiviral activity against COXV-B3; format: cell-based, COXV-B3 HA 201933; settings: COXV-B3, FIG. 1
Description: as §1, §2

[7] = cited from earlier work
DENV = settings: cited from earlier work
[8] = Cytotoxicity from screening; format: cell-based

In the case of `Nc1ncnc2c1ccn2[C@@H]1O[C@](F)(CO)[C@@H](O)[C@H]1O` [Example 1, (2S,3S,4R,5R)-5-(4-amino-7H-pyrrolo[2,3-d]pyrimidin-7-yl)-2-fluoro-2-(hydroxymethyl)tetrahydrofuran-3,4-diol], the CC50 (in vitro [1]) is reported as 1000 to 10000 nM, the CC50 at 24 h (in vitro [2]) is reported as 1000 to 10000 nM and the “efficacy vs RDV parent nucleosides and N-hydroxycytidine, RSV A2” value (RSV A2; RSV A2, FIG. 1) is reported as “more efficacious than RDV parent nucleosides and N-hydroxycytidine”. The EC50 (RSV A2; human respiratory syncytial virus, HEp-2, 72 h, read-out: RSV A2 / Hep2 EC50) was < 100 nM, the “efficacy vs RDV parent nucleosides and N-hydroxycytidine, HCoV-229E” value (HCoV-229E; HCoV-229E, FIG. 1) was “more efficacious than RDV parent nucleosides and N-hydroxycytidine” and the EC50 (HCoV-229E; Human coronavirus 229E, MRC5, 120 h, read-out: HCoV-229E/MRC5 EC50) was 100 to 1000 nM. The “efficacy vs RDV parent nucleosides and N-hydroxycytidine, MEV” value (MEV) was “more efficacious than RDV parent nucleosides and N-hydroxycytidine”, the “activities and selectivity vs known compounds with the same MOA, SARS-CoV-2” value (SARS-CoV-2; SARS-CoV-2) was “improved activities and selectivity” and the “efficacy vs RDV parent nucleosides and N-hydroxycytidine, SARS-CoV-2” value (SARS-CoV-2; SARS-CoV-2, FIG. 1) was “more efficacious than RDV parent nucleosides and N-hydroxycytidine”. For the same molecule, the EC50 (SARS-CoV-2; Severe acute respiratory syndrome coronavirus 2, HeLa-ACE2, 24 h, read-out: SARS-CoV-2 / HeLa-ACE2 EC50) was < 100 nM, the “efficacy vs RDV parent nucleosides and N-hydroxycytidine, SARS-CoV-1” value (SARS-CoV-1) was “more efficacious than RDV parent nucleosides and N-hydroxycytidine” and the “efficacy vs RDV parent nucleosides and N-hydroxycytidine, HRV14” value (HRV 14; HRV14, FIG. 1) was “more efficacious than RDV parent nucleosides and N-hydroxycytidine”. The EC50 (HRV 14; Rhinovirus B, H1-HeLa, 48 h, read-out: HRV / H1 HeLa B 14 EC50) was 100 to 1000 nM, the “efficacy vs RDV parent nucleosides and N-hydroxycytidine, Flu A H1N1” value (Flu A H1N1) was “more efficacious than RDV parent nucleosides and N-hydroxycytidine” and the CC50 (in vitro [3]) was 10000 to 99000 nM. For the same molecule, the “efficacy vs RDV parent nucleosides and N-hydroxycytidine, Polio PV-3” value (Polio PV-3) was “more efficacious than RDV parent nucleosides and N-hydroxycytidine”, the “efficacy vs RDV parent nucleosides and N-hydroxycytidine, YFV” value (YFV) was “more efficacious than RDV parent nucleosides and N-hydroxycytidine” and the EC50 (YFV; Yellow fever virus, HepG2, 24 h, read-out: YFV / HepG2 EC50) was < 100 nM. For the same molecule, the CC50 (Cytotoxicity, HFF) was 1000 to 10000 nM, the CC50 at 72 h (in vitro [4]) was 1000 to 10000 nM and the EC50 (HCoV-OC43; Betacoronavirus 1, OC43, HCT-8, 48 h, read-out: HCoV-OC43/HCT-8 EC50) was 100 to 1000 nM. For the same molecule, the “efficacy vs RDV parent nucleosides and N-hydroxycytidine, HCoV-OC43” value (HCoV-OC43; HCoV-OC43, FIG. 1) was “more efficacious than RDV parent nucleosides and N-hydroxycytidine”, the “efficacy vs RDV parent nucleosides and N-hydroxycytidine, ZIKV” value (ZIKV; ZIKV, FIG. 1) was “more efficacious than RDV parent nucleosides and N-hydroxycytidine” and the EC50 (ZIKV; Zika virus, HepG2, 24 h, read-out: ZIKV / HepG2 EC50) was < 100 nM. The “activities and selectivity vs known compounds with the same MOA, DENV” value (DENV-2; DENV) was “improved activities and selectivity”, the “activities and selectivity compared to tubercidin and NITD-008” value (DENV-2; DENV2 HepG2 assay) was “improved activities and selectivity compared to tubercidin and NITD-008” and the “efficacy vs RDV parent nucleosides and N-hydroxycytidine, DENV-2” value (DENV-2; DENV-2, FIG. 1) was “more efficacious than RDV parent nucleosides and N-hydroxycytidine”. For the same molecule, the EC50 (DENV-2; Dengue virus, DENV2, HepG2, 24 h, read-out: DENV-2 / HepG2 EC50) was < 100 nM, the CC50 (in vitro [5]) was 1000 to 10000 nM and the “efficacy vs RDV parent nucleosides and N-hydroxycytidine, HRV16” value (HRV 16; HRV16, FIG. 1) was “more efficacious than RDV parent nucleosides and N-hydroxycytidine”. For the same molecule, the EC50 (HRV 16; Rhinovirus A, H1-HeLa, 48 h, read-out: HRV / H1 HeLa A16 EC50) was 100 to 1000 nM, the “efficacy vs RDV parent nucleosides and N-hydroxycytidine, MERS-CoV” value (MERS-CoV) was “more efficacious than RDV parent nucleosides and N-hydroxycytidine” and the EC50 (CHIKV; Chikungunya virus, HepG2, 24 h, read-out: CHIKV / HepG2 EC50) was < 100 nM. The “efficacy vs RDV parent nucleosides and N-hydroxycytidine, CHIKV” value (CHIKV; alphavirus CHIKV, FIG. 1) was “more efficacious than RDV parent nucleosides and N-hydroxycytidine”, the EC50 (HCMV) was 1000 to 10000 nM and the “efficacy vs RDV parent nucleosides and N-hydroxycytidine, Polio PV-1” value (Polio PV-1) was “more efficacious than RDV parent nucleosides and N-hydroxycytidine”. The CC50 (in vitro [6]) was 1000 to 10000 nM and the “efficacy vs RDV parent nucleosides and N-hydroxycytidine, COXV-B3” value (COXV-B3) was “more efficacious than RDV parent nucleosides and N-hydroxycytidine”.
For `C#C[C@@]1(O)[C@H](O)[C@@H](CO)O[C@H]1n1ccc2c(N)ncnc21` [NITD-008, reference compound], the “SI (selectivity), DENV-2 HepG2 assay” value (DENV-2) is listed as 52, the “selectivity compared to tubercidin” value (DENV-2; DENV-2 HepG2 assay, FIG. 1) is listed as “improved selectivity compared to tubercidin” and the “two-week tox study outcome” value [7] is listed as “failed”. For the same molecule, the “efficacy in DENV-infected mouse model” value (DENV) was “good efficacy”.
In the case of `Nc1ncnc2c1ccn2[C@@H]1O[C@H](CO)[C@@H](O)[C@H]1O` [Tubercidin, reference compound], the cytotoxicity from screening [8] is reported as “significant cytotoxicity”, the “antiviral potency against SARS-CoV-2” value (SARS-CoV-2; SARS-CoV-2, screening) is reported as “high antiviral potency” and the “antiviral potency against DENV” value (DENV-2; DENV, screening) is reported as “high antiviral potency”. The “SI (selectivity), DENV-2 HepG2 assay” value (DENV-2) was 2.
